In ChEMBL document CHEMBL2311489 (Eur J Med Chem, 2013):
pEC50, pIC50, pKi: −log10 of the molar value. Active and inactive are the calls of the source. The rule behind the calls is not given here.

Experiments:
[1] = target: T1, 5-hydroxytryptamine receptor 1A (Homo sapiens, UniProt P08908); test: biochemical
T1 sequence (P08908 whole entry): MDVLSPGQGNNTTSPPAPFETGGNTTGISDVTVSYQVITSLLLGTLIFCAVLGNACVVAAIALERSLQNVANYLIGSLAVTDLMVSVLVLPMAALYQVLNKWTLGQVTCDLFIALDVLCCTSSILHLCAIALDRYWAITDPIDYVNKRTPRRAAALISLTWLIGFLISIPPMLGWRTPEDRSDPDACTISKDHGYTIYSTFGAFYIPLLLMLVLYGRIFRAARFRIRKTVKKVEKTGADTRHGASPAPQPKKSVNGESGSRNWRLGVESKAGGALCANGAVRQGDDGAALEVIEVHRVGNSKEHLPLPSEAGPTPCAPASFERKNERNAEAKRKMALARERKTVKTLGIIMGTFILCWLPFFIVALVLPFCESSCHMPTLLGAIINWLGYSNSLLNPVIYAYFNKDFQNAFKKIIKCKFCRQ

[2] = target: T2, 5-hydroxytryptamine receptor 7 (Homo sapiens, UniProt P34969); test: biochemical
[3] = target: 5-hydroxytryptamine receptor 2A (Homo sapiens, UniProt P28223); test: biochemical
Description: Displacement of [3H]-ketanserin from human 5HT2A receptor expressed in HEK293 after 1.5 hrs

[4] = target: T3, 5-hydroxytryptamine receptor 6 (Homo sapiens, UniProt P50406); test: biochemical
Description: (§1) Displacement of [3H]-LSD from human 5HT6 receptor expressed in HEK293 after 1 hr

Mus musculus [5] = test: Antipsychotic activity in Swiss albino mouse assessed as inhibition of apomorphine-induced climbing behavior at 5 mg/kg, ip administered 10 mins before apomorphine-challenge measured after 2 mins; assay type: functional; conditions: route intraperitoneal
Mus musculus [6] = test: Toxicity in Swiss albino mouse assessed as locomotor activity at 5 to 20 mg/kg, ip measured after 2 to 6 mins; assay type: organism-based; parameters: route intraperitoneal; conditions: in vivo
Mus musculus [7] = test: Antipsychotic activity in Swiss albino mouse assessed as inhibition of apomorphine-induced climbing behavior at 2.5 mg/kg, ip administered 10 mins before apomorphine-challenge measured after 2 mins; assay type: functional, organism-based; parameters: dose 2.5 mg/kg
[8] = target: T2, 5-hydroxytryptamine receptor 7
Mus musculus [9] = test: Antidepressant activity in Swiss albino mouse assessed as reduction of immobility time at 10 mg/kg, ip measured during last 4 mins of a 6 mins test session by forced swim test; assay type: functional; parameters: scale not given: the % may be the effect or the level left; conditions: route intraperitoneal
[10] = target: T1, 5-hydroxytryptamine receptor 1A
[11] = target: Sodium-dependent serotonin transporter (Rattus norvegicus, UniProt P31652); test: biochemical
[12] = target: T2, 5-hydroxytryptamine receptor 7; remark: listed apart in the source
[13] = target: T4, Adrenergic receptor alpha-1 (Rattus norvegicus, UniProt P15823+P23944+P43140)
T4 sequence (P15823 whole entry): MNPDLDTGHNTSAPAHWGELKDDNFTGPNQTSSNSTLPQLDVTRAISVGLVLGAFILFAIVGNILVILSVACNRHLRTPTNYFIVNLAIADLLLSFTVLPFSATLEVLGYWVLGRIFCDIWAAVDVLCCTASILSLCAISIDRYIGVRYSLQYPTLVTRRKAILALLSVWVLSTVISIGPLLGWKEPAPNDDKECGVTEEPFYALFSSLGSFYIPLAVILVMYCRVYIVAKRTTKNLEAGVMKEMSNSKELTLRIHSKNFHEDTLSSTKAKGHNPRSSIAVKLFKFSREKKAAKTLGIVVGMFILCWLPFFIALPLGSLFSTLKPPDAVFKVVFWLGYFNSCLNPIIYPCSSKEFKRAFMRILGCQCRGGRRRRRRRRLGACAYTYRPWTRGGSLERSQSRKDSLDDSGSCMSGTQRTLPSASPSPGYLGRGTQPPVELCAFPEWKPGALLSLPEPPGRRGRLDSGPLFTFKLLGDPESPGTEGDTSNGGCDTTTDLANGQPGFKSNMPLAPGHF
T4 sequence (P23944 whole entry): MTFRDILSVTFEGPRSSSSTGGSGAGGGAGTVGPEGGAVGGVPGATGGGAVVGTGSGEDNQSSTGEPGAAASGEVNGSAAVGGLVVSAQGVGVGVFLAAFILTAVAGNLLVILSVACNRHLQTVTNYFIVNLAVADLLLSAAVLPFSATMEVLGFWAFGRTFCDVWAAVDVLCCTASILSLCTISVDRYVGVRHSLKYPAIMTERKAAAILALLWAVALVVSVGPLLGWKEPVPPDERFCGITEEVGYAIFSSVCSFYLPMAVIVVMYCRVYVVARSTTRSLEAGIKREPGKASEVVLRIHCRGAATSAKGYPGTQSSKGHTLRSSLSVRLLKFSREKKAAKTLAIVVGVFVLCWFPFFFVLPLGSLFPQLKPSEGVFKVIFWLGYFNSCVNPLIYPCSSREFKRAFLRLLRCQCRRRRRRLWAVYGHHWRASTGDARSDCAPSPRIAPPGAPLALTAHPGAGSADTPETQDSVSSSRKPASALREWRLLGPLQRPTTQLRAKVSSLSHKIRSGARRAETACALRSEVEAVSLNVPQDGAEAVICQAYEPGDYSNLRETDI
T4 sequence (P43140 whole entry): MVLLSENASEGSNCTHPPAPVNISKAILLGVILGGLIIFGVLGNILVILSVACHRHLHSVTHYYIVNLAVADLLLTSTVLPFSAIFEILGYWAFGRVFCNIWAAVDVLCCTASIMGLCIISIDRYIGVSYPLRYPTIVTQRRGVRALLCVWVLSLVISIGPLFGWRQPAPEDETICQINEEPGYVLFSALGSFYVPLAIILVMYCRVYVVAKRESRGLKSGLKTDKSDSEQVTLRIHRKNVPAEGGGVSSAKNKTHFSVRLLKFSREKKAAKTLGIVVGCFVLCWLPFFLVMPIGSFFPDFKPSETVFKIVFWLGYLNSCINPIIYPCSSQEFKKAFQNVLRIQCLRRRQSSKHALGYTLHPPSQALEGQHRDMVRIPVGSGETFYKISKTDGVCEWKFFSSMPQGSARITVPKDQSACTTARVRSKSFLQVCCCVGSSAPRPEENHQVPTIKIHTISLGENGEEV
Description: Displacement of [3H]-Prazosin from adrenergic alpha1 receptor in rat cortex after 30 mins by scintillation counting

Mus musculus [14] = species on record: Mus musculus; test: animal or person; conditions: Swiss albino, ip, 20 min, read-out: ID50
Description: Antipsychotic activity in ip dosed Swiss albino mouse assessed as inhibition of (+/-)DOI-induced head twitch response after 20 mins

[15] = target: T1, 5-hydroxytryptamine receptor 1A; remark: listed apart in the source
Description: Agonist activity at human 5HT1A receptor expressed in CHO cells assessed as cAMP accumulation

D(2) dopamine receptor = D(2) dopamine receptor (Homo sapiens, UniProt P14416); test: biochemical; assay type: cell-based, HEK293
Description: Displacement of [3H]-raclopride from human dopamine D2L receptor expressed in HEK293 after 1 hr

Mus musculus [16] = test: Antidepressant activity in Swiss albino mouse assessed as reduction of immobility time at 5 mg/kg, ip measured during last 4 mins of a 6 mins test session by forced swim test; assay type: functional; parameters: scale not given: the % may be the effect or the level left; conditions: route intraperitoneal
[17] = target: T3, 5-hydroxytryptamine receptor 6
Description: as §1

[18] = target: D(3) dopamine receptor (Homo sapiens) (UniProt P35462); test: Displacement of [3H]-methylspiperone from human dopamine D3 receptor expressed in HEK293 at 10^-7 M after 1 hr; assay type: cell-based
[19] = target: D(3) dopamine receptor (Homo sapiens) (UniProt P35462); test: Displacement of [3H]-methylspiperone from human dopamine D3 receptor expressed in HEK293 at 10^-6 M after 1 hr; assay type: cell-based
Mus musculus [20] = test: Toxicity in CD1 mouse assessed as increase of MK-801-evoked hyperactivity at 20 mg/kg, ip after 30 mins; assay type: organism-based; parameters: dose 20 mg/kg, route intraperitoneal; conditions: in vivo, 0.5 h
Mus musculus [21] = test: Toxicity in CD1 mouse assessed as increase of MK-801-evoked hyperactivity at 10 mg/kg, ip after 30 mins; assay type: organism-based; parameters: dose 10 mg/kg, route intraperitoneal; conditions: in vivo, 0.5 h
Mus musculus [22] = test: Antidepressant activity in Swiss albino mouse assessed as reduction of immobility time at 20 mg/kg, ip measured during last 4 mins of a 6 mins test session by forced swim test; assay type: functional; parameters: scale not given: the % may be the effect or the level left; conditions: route intraperitoneal
Mus musculus [23] = test: Toxicity in Swiss albino mouse assessed as locomotor activity at 20 mg/kg, ip measured after 2 to 6 mins; assay type: organism-based; parameters: dose 20 mg/kg, route intraperitoneal; conditions: in vivo
Mus musculus [24] = species on record: Mus musculus; test: animal or person; conditions: Swiss albino, ip, read-out: ID50
Description: Antipsychotic activity in ip dosed Swiss albino mouse assessed as inhibition of apomorphine-induced climbing behavior administered 10 mins before apomorphine-challenge measured after 2 mins

Mus musculus [25] = test: Antipsychotic activity in Swiss albino mouse assessed as inhibition of apomorphine-induced climbing behavior at 1.25 mg/kg, ip administered 10 mins before apomorphine-challenge measured after 2 mins; assay type: functional; conditions: route intraperitoneal
Mus musculus [26] = test: Antipsychotic activity in CD1 mouse assessed as inhibition MK-801-evoked hyperactivity at 2.5 to 20 mg/kg, ip after 30 mins; assay type: functional, organism-based
Mus musculus [27] = test: Antipsychotic activity in CD1 mouse assessed as inhibition MK-801-evoked hyperactivity at 10 to 20 mg/kg, ip after 30 mins; assay type: functional, organism-based

Chain of 5-hydroxytryptamine receptor 2A (P28223 whole entry): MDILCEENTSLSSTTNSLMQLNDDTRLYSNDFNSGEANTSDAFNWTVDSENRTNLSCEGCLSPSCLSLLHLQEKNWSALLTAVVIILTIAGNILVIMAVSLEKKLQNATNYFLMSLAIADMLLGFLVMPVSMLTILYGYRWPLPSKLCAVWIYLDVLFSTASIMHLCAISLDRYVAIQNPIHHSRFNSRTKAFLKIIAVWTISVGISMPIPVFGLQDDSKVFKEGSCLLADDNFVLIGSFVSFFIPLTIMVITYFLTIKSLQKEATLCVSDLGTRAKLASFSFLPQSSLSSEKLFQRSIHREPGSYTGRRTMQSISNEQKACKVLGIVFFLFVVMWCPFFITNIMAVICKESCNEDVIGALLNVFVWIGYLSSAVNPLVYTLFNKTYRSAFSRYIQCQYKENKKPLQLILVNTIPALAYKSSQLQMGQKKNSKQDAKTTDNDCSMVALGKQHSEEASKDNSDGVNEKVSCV
Chain of D(2) dopamine receptor (P14416 whole entry): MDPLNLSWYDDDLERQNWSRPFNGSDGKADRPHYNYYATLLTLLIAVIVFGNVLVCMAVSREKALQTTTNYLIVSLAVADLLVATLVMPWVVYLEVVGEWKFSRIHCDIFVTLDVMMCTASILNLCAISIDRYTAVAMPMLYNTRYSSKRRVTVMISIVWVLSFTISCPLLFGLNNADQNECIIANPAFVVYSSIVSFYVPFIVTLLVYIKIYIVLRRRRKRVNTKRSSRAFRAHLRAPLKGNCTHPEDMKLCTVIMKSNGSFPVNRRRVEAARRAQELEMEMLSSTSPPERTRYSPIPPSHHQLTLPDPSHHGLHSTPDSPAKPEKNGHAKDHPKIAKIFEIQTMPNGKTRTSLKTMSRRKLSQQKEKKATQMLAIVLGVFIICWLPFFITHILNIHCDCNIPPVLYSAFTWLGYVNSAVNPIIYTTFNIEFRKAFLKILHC
T2 sequence (P34969 whole entry): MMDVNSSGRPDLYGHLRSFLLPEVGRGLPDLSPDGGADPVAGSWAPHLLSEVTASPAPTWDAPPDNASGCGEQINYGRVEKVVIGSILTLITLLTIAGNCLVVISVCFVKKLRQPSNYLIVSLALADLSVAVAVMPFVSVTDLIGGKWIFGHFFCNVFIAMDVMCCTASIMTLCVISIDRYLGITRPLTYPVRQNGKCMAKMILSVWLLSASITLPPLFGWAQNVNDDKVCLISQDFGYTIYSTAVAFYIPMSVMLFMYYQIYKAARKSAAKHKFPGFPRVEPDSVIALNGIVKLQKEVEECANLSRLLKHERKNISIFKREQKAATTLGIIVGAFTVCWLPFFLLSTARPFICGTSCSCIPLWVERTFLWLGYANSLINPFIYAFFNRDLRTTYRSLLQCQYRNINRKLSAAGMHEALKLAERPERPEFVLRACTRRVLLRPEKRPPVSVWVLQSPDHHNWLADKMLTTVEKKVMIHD
Chain of D(3) dopamine receptor (Homo sapiens) (P35462 whole entry): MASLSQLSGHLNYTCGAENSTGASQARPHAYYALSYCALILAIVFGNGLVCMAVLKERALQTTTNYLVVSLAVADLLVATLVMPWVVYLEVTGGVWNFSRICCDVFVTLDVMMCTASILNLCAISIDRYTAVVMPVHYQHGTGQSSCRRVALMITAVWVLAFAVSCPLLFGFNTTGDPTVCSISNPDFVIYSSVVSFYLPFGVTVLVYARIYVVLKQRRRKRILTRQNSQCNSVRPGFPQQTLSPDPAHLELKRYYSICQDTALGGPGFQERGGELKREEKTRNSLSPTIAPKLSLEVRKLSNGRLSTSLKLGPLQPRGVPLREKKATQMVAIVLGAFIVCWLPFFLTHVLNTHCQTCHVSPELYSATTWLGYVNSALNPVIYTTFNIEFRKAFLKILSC
Chain of Sodium-dependent serotonin transporter (P31652 whole entry): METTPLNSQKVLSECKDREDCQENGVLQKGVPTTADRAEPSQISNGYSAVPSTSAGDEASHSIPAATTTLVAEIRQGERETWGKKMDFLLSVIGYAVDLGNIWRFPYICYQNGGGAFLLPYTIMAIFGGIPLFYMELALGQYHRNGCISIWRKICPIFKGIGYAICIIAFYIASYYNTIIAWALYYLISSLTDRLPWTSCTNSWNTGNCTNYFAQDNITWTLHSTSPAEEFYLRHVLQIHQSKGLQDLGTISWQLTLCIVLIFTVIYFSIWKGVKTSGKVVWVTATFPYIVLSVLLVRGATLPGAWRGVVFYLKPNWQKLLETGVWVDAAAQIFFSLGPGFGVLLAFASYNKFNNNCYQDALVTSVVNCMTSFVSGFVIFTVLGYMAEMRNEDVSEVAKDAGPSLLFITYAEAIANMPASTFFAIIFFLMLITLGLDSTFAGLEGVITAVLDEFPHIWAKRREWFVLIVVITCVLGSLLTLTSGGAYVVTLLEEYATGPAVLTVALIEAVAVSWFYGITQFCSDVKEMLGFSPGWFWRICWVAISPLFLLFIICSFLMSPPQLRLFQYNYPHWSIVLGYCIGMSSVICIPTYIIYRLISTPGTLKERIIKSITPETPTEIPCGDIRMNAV
T3 sequence (P50406 whole entry): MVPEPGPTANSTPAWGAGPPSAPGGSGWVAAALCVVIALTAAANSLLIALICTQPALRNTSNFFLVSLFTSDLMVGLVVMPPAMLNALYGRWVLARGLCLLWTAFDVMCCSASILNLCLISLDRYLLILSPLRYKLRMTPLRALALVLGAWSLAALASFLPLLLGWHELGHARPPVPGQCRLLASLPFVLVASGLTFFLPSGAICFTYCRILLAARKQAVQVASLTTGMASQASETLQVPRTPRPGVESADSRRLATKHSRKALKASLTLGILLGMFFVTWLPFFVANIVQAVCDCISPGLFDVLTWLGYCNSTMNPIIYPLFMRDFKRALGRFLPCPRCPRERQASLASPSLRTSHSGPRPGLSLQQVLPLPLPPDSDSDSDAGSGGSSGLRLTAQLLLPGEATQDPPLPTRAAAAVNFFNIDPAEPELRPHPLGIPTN

pKi [1]	pKi [2]	pKi [3]	pKi [4]	pKi [11]	pIC50 [12]	Ki [13]	pEC50 [15]	pKi (D(2) dopamine receptor)	inhibition [18]	inhibition [19]	SMILES	inhibition in vivo at 5 mg/kg (Mus musculus [5])	Activity (Mus musculus [6])	Activity (Mus musculus [9])	ED50 (Mus musculus [14])	Activity (Mus musculus [22])	ED50 (Mus musculus [24])	other results
6.95	7.57	7.54	6.22	–	–	–	–	–	–	–	O=S(=O)(NCCCCN1CCN(c2cccc(Cl)c2Cl)CC1)c1cccc2cccnc12	–	–	–	–	–	–	–
7.10	6.91	7.64	6.32	–	–	–	–	–	–	–	O=S(=O)(NCCCCN1CCN(c2cccc(Cl)c2Cl)CC1)c1ccc2ncccc2c1	–	–	–	–	–	–	–
–	–	7.46	–	6.47	5.25	255 nM	4.81	7.77	95%	98%	O=S(=O)(NCCCCN1CCN(c2cccc(Cl)c2Cl)CC1)c1cc2ccccc2cn1	–	Non-toxic	53%	9.03 mg/kg	83%	19.9 mg/kg	pKi [8]: 7.25; pKi [10]: 7.47; inhibition in vivo at 1.25 mg/kg (Mus musculus [25]): 49.1%; Activity (Mus musculus [16]): 43%; pKi [17]: 6.34; inhibition (Mus musculus [26]): inactive
7.23	7.68	7.05	6.66	6.11	6.09	160 nM	4.82	8.10	93%	95%	O=S(=O)(NCCCCN1CCN(c2cccc(Cl)c2Cl)CC1)c1cncc2ccccc12	44.6%	Non-toxic	–	5.3 mg/kg	44%	11.3 mg/kg	inhibition (Mus musculus [27]): Active
7.64	7.52	7.47	5.88	5.92	5.11	170 nM	5.78	8.05	94%	99%	O=S(=O)(NCCCCN1CCN(c2cccc(Cl)c2Cl)CC1)c1cnc2ccccc2c1	49.3%	Non-toxic	31%	20.2 mg/kg	30%	20.7 mg/kg	inhibition (Mus musculus [26]): inactive

The remaining lines, values behind:

SMILES	pKi [1]	pKi [2]	pKi [3]	pKi [4]	pKi [11]	pIC50 [12]	Ki [13]	pEC50 [15]	pKi (D(2) dopamine receptor)	inhibition [18]	inhibition [19]	inhibition in vivo at 5 mg/kg (Mus musculus [5])	Activity (Mus musculus [6])	Activity (Mus musculus [9])	ED50 (Mus musculus [14])	Activity (Mus musculus [22])	ED50 (Mus musculus [24])	other results
O=S(=O)(NCCCN1CCN(c2cccc(Cl)c2Cl)CC1)c1ccc2ncccc2c1	7.60	7.51	7.19	6.49	–	–	–	–	–	–	–	–	–	–	–	–	–	–
O=S(=O)(NCCCN1CCN(c2cccc(Cl)c2Cl)CC1)c1ccc2cccnc2c1	–	–	7.33	–	6.65	5.55	186 nM	5.13	7.80	90%	99%	50.5%	Non-toxic	79%	10.2 mg/kg	–	–	Activity (Mus musculus [7]): Active; pKi [8]: 7.92; pKi [10]: 7.85; Activity (Mus musculus [16]): 57%; pKi [17]: 6.59; Activity (Mus musculus [20]): Toxic
O=S(=O)(NCCCCN1CCN(c2cccc(Cl)c2Cl)CC1)c1cnc2ccc(Cl)cc2c1	7.06	7.39	7.38	6.26	–	–	–	–	–	–	–	–	–	–	–	–	–	–
O=S(=O)(NCCCCN1CCN(c2cccc(Cl)c2Cl)CC1)c1ccc2cccnc2c1	–	–	7.66	–	6.10	5.42	136 nM	6.06	7.96	99%	101%	43.6%	–	48%	4.58 mg/kg	41%	19.9 mg/kg	Activity (Mus musculus [21]): Toxic; pKi [8]: 7.51; pKi [10]: 7.77; Activity (Mus musculus [23]): Toxic; pKi [17]: 6.52
O=S(=O)(NCCCN1CCN(c2cccc(Cl)c2Cl)CC1)c1cnc2ccc(Cl)cc2c1	7.64	7.34	6.94	6.05	–	–	–	–	–	–	–	–	–	–	–	–	–	–
CSc1ccc2c(c1)C(CCN)=CC2 [METHIOTHEPINE]	–	–	–	–	–	8.66	–	–	–	–	–	–	–	–	–	–	–	–
